Test results taken from patent US11999732B2, “P2X3 receptor antagonists” (RECORDATI INDUSTRIA CHIMICA E FARMACEUTICA SPA, priority 2018, dated 2024).

Molecular target: T1, human P2X3 receptor (Homo sapiens, UniProt P56373)
T1 construct: expressed in transfected cells; host or cells: CHO-K1
T1 sequence (P56373 1-397): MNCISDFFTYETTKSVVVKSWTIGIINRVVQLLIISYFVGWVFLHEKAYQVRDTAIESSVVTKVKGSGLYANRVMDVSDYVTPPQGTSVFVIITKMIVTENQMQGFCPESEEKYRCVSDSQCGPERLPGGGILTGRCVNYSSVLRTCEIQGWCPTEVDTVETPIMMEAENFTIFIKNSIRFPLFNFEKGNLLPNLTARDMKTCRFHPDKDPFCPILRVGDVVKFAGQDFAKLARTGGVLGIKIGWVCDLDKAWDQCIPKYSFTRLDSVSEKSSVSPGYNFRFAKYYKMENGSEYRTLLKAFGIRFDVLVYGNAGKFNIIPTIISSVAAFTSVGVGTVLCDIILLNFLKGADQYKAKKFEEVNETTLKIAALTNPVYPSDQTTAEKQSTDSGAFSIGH
Assay: Calcium luminescence (photoprotein) assay in CHO-K1 cells co-expressing human P2X3 receptor, α,β-Met-ATP stimulation, FLEXSTATION readout
Assay type: cell-based
Settings: Table 6; human P2X3 receptor antagonist activity, CHO-K1 cells, α,β-Met-ATP; read-out: h-P2X3 IC50
Method: The assay for the human purinergic P2X3 receptor has been adapted to the internal screening instrumentation using the FLEXSTATION as reader and a photoprotein as luminescent readout. The assay consists of CHO-K1 cells recombinantly co-expressing the human P2rx3 receptor and a Ca^2+ sensitive photoprotein. Cells are maintained in DMEM F-12 (1:1) mixture (LONZA cat. no BE04-687F/U1) supplemented with 9 mL of 100 mM Sodium Pyruvate (LONZA cat. no BE13-115E), 29 mL of 7.5% Sodium Bicarbonate (LONZA cat. no: BE17-613E), 5.5 mL of 1 M Hepes (LONZA cat. no BE17-737E), 5 mL of 100× Penicillin/Streptomycin (LONZA cat. no DE17-602E) and 50 mL of Fetal Bovine Serum (Sigma cat. no F7524), 1 mg/mL G418 (Sigma cat. no G8168) and 5 µg/ml puromycin (Sigma cat. no P9620). Standard propagation conditions consist of seeding in a P75 flask twice a week, recovering about 20×10^6 cells, corresponding to about 80% confluency. Cells were seeded into black-walled clear bottom 96 well plates at a density of 40000 cells/well in a Tyrode's buffer (Standard Tyrode's buffer: in house solution, 130 mM NaCl, 5 mM KCl, 2 mM CaCl2, 5 mM NaHCO3, 1 mM MgCl2, 20 mM HEPES, pH 7.4). After 24 h the culture medium was replaced with 200 μL/well of coelenterazine in Tyrode's buffer (Coelenterazine: from BIOSYNTH (cat. no C-7001). 10 mM stock solution was prepared in DMSO and glutathione and stored at −20° C.). The plates were incubated for 4 hours at 37° C., and injected with 10 μL/well of test compounds at 25× concentration in Tyrode's buffer. After 4 minutes a second injection of 50 μL/well of 5× α,β-Met-ATP in Tyrode's buffer (α,β-Met-ATP: from Tocris (cat. no 3209), was dissolved at 100 mM in water and stored in aliquots at −20° C.) was performed and the signal of the emitted luminescence was recorded by FLEXSTATION III (Molecular Devices).
The inhibition curves of the tested compounds at cloned P2X3 receptor were determined by nonlinear regression analysis using software Prism 4.0 (Graphpad, San Diego, Calif.). The IC50 values and pseudo-Hill slope coefficients were estimated by the program.

SMILES	IC50
COCC1CN(c2cnc3c(c2)N(Cc2ccc(Cl)cc2)C(=O)N2CC(C(C)C)N=C32)C1 (centres unmarked) [Example 17, 6-(4-chlorobenzyl)-8-[3-(methoxymethyl)azetidin-1-yl]-2-(propan-2-y1)-2,6-dihydroimidazo[1,2-c]pyrido[2,3-e]pyrimidin-5(3H)-one]	690 nM
COc1ccc(CN2C(=O)N3CC(C(C)C)N=C3c3ncc(N4CCOCC4)cc32)cc1 (centres unmarked) [Example 18, 6-(4-methoxybenzyl)-8-(morpholin-4-yl)-2-(propan-2-yl)-2,6-dihydroimidazo[1,2-c]pyrido[2,3-e]pyrimidin-5(3H)-one]	301 nM
COc1ccc(CN2C(=O)N3CC(C(C)C)N=C3c3ncc(N4CC5(COC5)C4)cc32)cc1 (centres unmarked) [Example 19, 6-(4-methoxybenzyl)-8-(2-oxa-6-azaspiro[3.3]heptan-6-yl)-2-(propan-2-yl)-2,6-dihydroimidazo[1,2-c]pyrido[2,3-e]pyrimidin-5(3H)-one]	5510 nM
COc1ccc(CN2C(=O)N3CC(C(C)C)N=C3c3ncc(N4CCC(CO)CC4)cc32)cc1 (centres unmarked) [Example 20]	1140 nM
COc1ccc(CN2C(=O)N3CC(C(C)C)N=C3c3ncc(N4CCC(N(C)C)CC4)cc32)cc1 (centres unmarked) [Example 21, 8-[4-(dimethylamino)piperidin-1-yl]-6-(4-methoxybenzyl)-2-(propan-2-yl)-2,6-dihydroimidazo[1,2-c]pyrido[2,3-e]pyrimidin-5(3H)-one]	7190 nM
COc1cc(CN2C(=O)N3CC(CC(C)C)N=C3c3ncc(N4CCOCC4)cc32)cc(OC)c1 (centres unmarked) [Example 22, 6-(3,5-dimethoxybenzyl)-2-(2-methylpropyl)-8-(morpholin-4-yl)-2,6-dihydroimidazo[1,2-c]pyrido[2,3-e]pyrimidin-5(3H)-one]	143 nM
COc1ccc(CN2C(=O)N3CC(C4CCCCC4)N=C3c3ncc(N4CCOCC4)cc32)cc1 (centres unmarked) [Example 23, 2-cyclohexyl-6-(4-methoxybenzyl)-8-(morpholin-4-yl)-2,6-dihydroimidazo[1,2-c]pyrido[2,3-e]pyrimidin-5(3H)-one]	506 nM
COc1ccc(CN2C(=O)N3C(=NCC3C3CCCCC3)c3ncc(N4CCOCC4)cc32)cc1 (centres unmarked) [Example 24, 3-cyclohexyl-6-(4-methoxybenzyl)-8-(morpholin-4-yl)-2,6-dihydroimidazo[1,2-c]pyrido[2,3-e]pyrimidin-5(3H)-one]	515 nM
O=C1N2CC(C3CCCCC3)N=C2c2ncc(N3CCOCC3)cc2N1Cc1ccc(Cl)cc1 (centres unmarked) [Example 25, 6-(4-chlorobenzyl)-2-cyclohexyl-8-(morpholin-4-yl)-2,6-dihydroimidazo[1,2-c]pyrido[2,3-e]pyrimidin-5(3H)-one]	389 nM
O=C1N(Cc2ccc(Cl)cc2)c2cc(N3CCOCC3)cnc2C2=NCC(C3CCCCC3)N12 (centres unmarked) [Example 26, 6-(4-chlorobenzyl)-3-cyclohexyl-8-(morpholin-4-yl)-2,6-dihydroimidazo[1,2-c]pyrido[2,3-e]pyrimidin-5(3H)-one]	469 nM
COc1ccc(CN2C(=O)N3CC(c4ccccc4)N=C3c3ncc(N4CCOCC4)cc32)cc1 (centres unmarked) [Example 28, 6-(4-methoxybenzyl)-8-(morpholin-4-yl)-2-phenyl-2,6-dihydroimidazo[1,2-c]pyrido[2,3-e]pyrimidin-5(3H)-one]	375 nM
COc1ccc(CN2C(=O)N3C(=NCC3c3ccccc3)c3ncc(N4CCOCC4)cc32)cc1 (centres unmarked) [Example 29, 6-(4-methoxybenzyl)-8-(morpholin-4-yl)-3-phenyl-2,6-dihydroimidazo[1,2-c]pyrido[2,3-e]pyrimidin-5(3H)-one]	368 nM
CC(C)CC1CN2C(=O)N(Cc3ccc(Cl)cc3)c3cc(N4CCOCC4)cnc3C2=N1 (centres unmarked) [Example 30, 6-(4-chlorobenzyl)-2-(2-methylpropyl)-8-(morpholin-4-y1)-2,6-dihydroimidazo[1,2-c]pyrido[2,3-e]pyrimidin-5(3H)-one]	350 nM
CC(C)CC1CN=C2c3ncc(N4CCOCC4)cc3N(Cc3ccc(Cl)cc3)C(=O)N21 (centres unmarked) [Example 31, 6-(4-chlorobenzyl)-3-(2-methylpropyl)-8-(morpholin-4-yl)-2,6-dihydroimidazo[1,2-c]pyrido[2,3-e]pyrimidin-5(3H)-one]	229 nM
